Results as given in patent US4518611A, “2-Furylbutyrolactone modulation of the immune system in mammals” (priority 1983, dated 1985).
Several values for one entry are separate records, joined by “and”; a condition that tells them apart may be missing. Identical values can stand only once. Like-named read-outs stand apart in the source and are kept apart here.

Tests used:
CD rats = conditions: 14 days
Method: (§1) Single oral dose LD50 in CD-1 mice and CD rats, obtained from Charles River U.K. Ltd., for Cpd. 1 is determined. […] Cpd. 1, dissolved in buffer, or just buffer is administered orally and the mice and rats are observed for 14 days after dosing. After 14 days, the animals are sacrificed and necropsy is performed to check for gross evidence of toxicity.

CD-1 mice = conditions: 14 days
Method: as §1

spleen lymphocytes [1] = conditions: 7 days
Method: (§2) The purpose of this assay is to challenge lymphocytes in microcultures with one or more polyclonal mitogens at concentrations that will induce mitogenesis within 72 hours of stimulation.
(§3) In the mouse model, spleens are removed from different strains of mice and the spleen cells are teased free and suspended in RPMI-1640 tissue culture medium at a concentration of usually […]. These cells are dispensed at a concentration of 5.0×10^5 cells per microculture well in a 96 well flat bottom 96 well tissue culture plate. All testing of the compounds of this invention or mitogens are done in replicates of 10. The cells are then treated with PHA, Con-A, specific antigens, or buffer only. If in vitro testing is done, varying concentrations of the compounds of this invention or buffer only are added to the cells as well. After treatment with the mitogens and/or compounds of this invention, the cells are incubated for 72 hours. The response of these cells to mitogens and/or the compounds of this invention is assessed using ^14 C-thymidine labeling on the fourth day at a concentration of 0.01 μCi/well. The labeled cells are harvested using a lymphocyte harvestor and placed onto fibrous paper discs. A scintillation cocktail is added to vials containing the discs and the results are obtained using a LKB-liquid scintillation counter (Model 1216/Rackbeta II). The data is expressed as a ratio of the cpm of the mitogen stimulated group to the control (nonmitogen) treated group=lymphocyte stimulation index (LSI).
(§4) The lymphocyte stimulation assay may be performed directly on spleen cells obtained from various strains of mice not treated with the compounds of this invention or on lymphocytes obtained from human […]. […] Alternatively, the mice may be treated in vivo with the compounds of this invention by intraperitoneal multi-dose schedules, followed by sacrifice and harvesting spleen lymphocytes. These cells are then tested for their response to polyclonal mitogens or specific antigens used to immunize the mice. In this system however, no additional compound is added to the in vitro lymphocyte stimulation assay system.
Two strains of mice, C57BL/6 and BDF1 are treated for seven days with i.p. administration of either 25, 50, 100, 200, or 400 mg/kg of Cpd. 1 or just buffer. This is followed on the eighth day by a lymphocyte stimulation assay.

spleen lymphocytes [2] = conditions: for Lymphocyte Stimulation Index, Control (no mitogen): 100 mg/kg i.p.; for effect on mitogen response (in words): 100 mg/kg
Method: as §2, §3, §4
Three month old mice of the SJL/J strain, which are T-cell deficient, are treated with i.p. administration of 100, 200, or 400 mg/kg of Cpd. 1 or just buffer for four days. This is followed by a lymphocyte stimulation assay.
An in vivo lymphocyte stimulation assay was performed on SJL/J mice of different ages, either 2, 5, or 10 months. The mice received i.p. injections of either 100 mg/kg of Cpd. 1 or just buffer.

spleen lymphocytes [3] = conditions: for stimulation of DNA synthesis (in words): BSA
Text: The effect of the compounds of this invention on the immune response to specific antigens involves immunization of mice with specific antigens such as bovine serum albumin (BSA) or keyhole limpet hemocyanin (KLH). Following immunization, it is possible to assess the cell-mediated or humoral (antibody) immune response to these antigens by various methods:
(1) Lymphocyte stimulation assays can be performed using varying concentrations of the specific antigens as mitogens in the lymphocyte stimulation microculture system described above. The only difference is that the incubation period is extended to five days instead of three as for the polyclonal mitogens.
Mice of the C57BL/6 strain are given i.p. injections of either 50, 100, 200 or 400 mg/kg of Cpd. 1 or buffer for twelve days (days 1-12). An antigen, bovine serum albumin (BSA), is administered intraperitoneally with Freund's Complete Adjuvant (FCA) on days 1, 7 and 14. Blood samples are taken for assay of the antibody response on days 0, 5, 13, and 19.

L-1210 leukemia cells = assay: Treatment of L-1210 leukemia in BDF1 mice (T/C ratios); type: in vivo, mouse
Text: Mice of the BDF1 strain are given in i.p. inoculation of 10^6 L-1210 leukemia cells on day 0. Twenty-four hours later, groups of 7 mice each are started on a nine day treatment regimen of various doses of the compounds of this invention. The experiment is continued according to the guidelines provided under the National Cancer Institute protocol for screening new anti-cancer agents and T/C ratios (median or mean survival time of treated groups over median or mean survival time of controls) are calculated. A T/C value ≥1.25 (or 125%) is considered significant anticancer activity.
(§5) Mice of the BDF1 strain, inoculated with L-1210 leukemia cells, are treated for seven days with either 25, 50, 100, 200 or 400 mg/kg of Cpd. 1 or just buffer. The National Cancer Institute protocol for screening new anti-cancer agents is followed and T/C ratios are calculated.
as §5, with “either 100” for “either 25, 50, 100, 200 or 400”, “Cpd. 1, 20 mg/kg of 5-flourouracil (5-FU), a known anti-cancer agent,” for “Cpd. 1”

For `Cc1ccc(C2(O)C(=O)OC3C(O)COC32O)o1.Cc1ccc(C2(O)C(=O)OC3C(O)COC32O)o1.O=C1CCC(=O)O1` (stereo not shown) [Cpd. 1, 2-furylbutyrolactone:succinic anhydride], the “deaths or signs of toxicity” value (CD rats; 5 g/kg oral) was “No deaths or signs of toxicity”, the LD50 (CD rats; single oral dose) was greater than 5000 mg/kg and the “deaths or signs of toxicity” value (CD-1 mice; 5 g/kg oral) was “No deaths or signs of toxicity”. The LD50 (CD-1 mice; single oral dose) was greater than 5000 mg/kg, the “Lymphocyte Stimulation Index, Con-A” value (spleen lymphocytes [1]; 25 mg/kg i.p.) was 4.3 and the “Lymphocyte Stimulation Index, Control (buffer, pH 8.05)” value (spleen lymphocytes [1]; 25 mg/kg i.p.) was 0.8. The “Lymphocyte Stimulation Index, PHA” value (spleen lymphocytes [1]; 25 mg/kg i.p.) was 13.8, the “Lymphocyte Stimulation Index, Con-A” value (spleen lymphocytes [1]; 50 mg/kg i.p.) was 21.6 and the “Lymphocyte Stimulation Index, Control (buffer, pH 8.05)” value (spleen lymphocytes [1]; 50 mg/kg i.p.) was 0.9. The “Lymphocyte Stimulation Index, PHA” value (spleen lymphocytes [1]; 50 mg/kg i.p.) was 52.1, the “Lymphocyte Stimulation Index, Con-A” value (spleen lymphocytes [1]; 100 mg/kg i.p.) was 17.9 and the “Lymphocyte Stimulation Index, Control (buffer, pH 8.05)” value (spleen lymphocytes [1]; 100 mg/kg i.p.) was 0.7. For the same molecule, the “Lymphocyte Stimulation Index, PHA” value (spleen lymphocytes [1]; 100 mg/kg i.p.) was 48.7, the “Lymphocyte Stimulation Index, Con-A” value (spleen lymphocytes [1]; 200 mg/kg i.p.) was 2.9 and the “Lymphocyte Stimulation Index, Control (buffer, pH 8.05)” value (spleen lymphocytes [1]; 200 mg/kg i.p.) was 0.8. The “Lymphocyte Stimulation Index, PHA” value (spleen lymphocytes [1]; 200 mg/kg i.p.) was 7.8, the “Lymphocyte Stimulation Index, Con-A” value (spleen lymphocytes [1]; 400 mg/kg i.p.) was 0.9 and the “Lymphocyte Stimulation Index, Control (buffer, pH 8.05)” value (spleen lymphocytes [1]; 400 mg/kg i.p.) was 0.9. For the same molecule, the “Lymphocyte Stimulation Index, PHA” value (spleen lymphocytes [1]; 400 mg/kg i.p.) was 1.1, the “Lymphocyte Stimulation Index, Control (no mitogen)” value (spleen lymphocytes [2]; age 2 months) was 2.3 and the “Lymphocyte Stimulation Index, Control (no mitogen)” value (spleen lymphocytes [2]; age 5 months) was 1.9. The “Lymphocyte Stimulation Index, Control (no mitogen)” value (spleen lymphocytes [2]; age 10 months) was 2.1, the “effect on mitogen response (in words)” value (spleen lymphocytes [2]; age 2 months) was “decreased PHA versus increased Con-A response” and the “effect on mitogen response (in words)” value (spleen lymphocytes [2]; age 5 months) was “depressed mitogenesis response to both PHA and Con-A”. The “effect on mitogen response (in words)” value (spleen lymphocytes [2]; age 10 months) was “significant stimulation of both the PHA and Con-A mitogenic response”, the “Lymphocyte Stimulation Index, Con-A” value (spleen lymphocytes [2]; 400 mg/kg i.p., four days, three month old) was 3.30 and the “Lymphocyte Stimulation Index” value (spleen lymphocytes [3]; 50 mg/kg, BSA 0 μg/well, Day 19) was “.26”. The “stimulation of DNA synthesis (in words)” value (spleen lymphocytes [3]; 50 mg/kg, day 19) was “This effect has waned by day 19”, the “Lymphocyte Stimulation Index” value (spleen lymphocytes [3]; 100 mg/kg, BSA 0 μg/well, Day 19) was 4.1 and the “Lymphocyte Stimulation Index” value (spleen lymphocytes [3]; 100 mg/kg, BSA 0.01 μg/well, Day 13) was 9.8. For the same molecule, the “Lymphocyte Stimulation Index” value (spleen lymphocytes [3]; 100 mg/kg, BSA 1.0 μg/well, Day 19) was “.26”, the “Lymphocyte Stimulation Index” value (spleen lymphocytes [3]; 200 mg/kg, BSA 0 μg/well, Day 19) was 0.42 and the “Lymphocyte Stimulation Index” value (spleen lymphocytes [3]; 200 mg/kg, BSA 1 μg/well, Day 13) was 14.0. The “Lymphocyte Stimulation Index” value (spleen lymphocytes [3]; 400 mg/kg, BSA 0 μg/well, Day 19) was 5.0, the “stimulation of DNA synthesis (in words)” value (spleen lymphocytes [3]; day 13) was “Only the 50 mg/kg dose shows significant stimulation of DNA synthesis on day 13 compared to controls” and the “Median Survival Time” value (L-1210 leukemia cells; 25 mg/kg, seven days) was 20 days. For the same molecule, the T/C (L-1210 leukemia cells; 25 mg/kg, seven days) was 1.00, the “Median Survival Time” value (L-1210 leukemia cells; 50 mg/kg, seven days) was 21 days and the T/C (L-1210 leukemia cells; 50 mg/kg, seven days) was 1.05. For the same molecule, the “Median Survival Time” value (L-1210 leukemia cells; 100 mg/kg, seven days) was 30 days, the T/C (L-1210 leukemia cells; 100 mg/kg, seven days) was 1.50 and 1.40 and the “Median Survival Time” value (L-1210 leukemia cells; 100 mg/kg, seven days (Table 25)) was 28. The “Median Survival Time” value (L-1210 leukemia cells; 200 mg/kg, seven days) was 30 days, the T/C (L-1210 leukemia cells; 200 mg/kg, seven days) was 1.50 and the “Median Survival Time” value (L-1210 leukemia cells; 400 mg/kg, seven days) was 25 days. It also gave a T/C (L-1210 leukemia cells; 400 mg/kg, seven days) of 1.25.
